# Earlier results, collected in patent US12018060B2 (HANMI PHARM CO., LTD., priority 2014, dated 2024).
# Details: after one year of administration
structure (smiles),measurement,value
"CCCCCCCCCCC[C@@H](C[C@@H]1OC(=O)[C@H]1CCCCCC)OC(=O)[C@H](CC(C)C)NC=O [Orlist®, Orlistat]",body weight decrease,about 4 kg
